The source of these data is US12612409B2, “Pyrrolopyrimidines as CFTR potentiators” (Cystic Fibrosis Foundation, priority 2016, dated 2026).

As a reminder, the EC50 is the concentration giving half of the maximal effect.

Assay [1] has as its target T1, CFTR in F508del/F508del primary CF hBE cells (Homo sapiens, UniProt P13569, DEL508-508).
T1 construct: Primary cystic fibrosis human bronchial epithelial (CF hBE) cells were expanded and cultured; endogenous in cells; host or cells: primary CF human bronchial epithelial cells, genotype F508del/F508del
The assay is described as follows: Ussing chamber electrophysiology assay of CFTR potentiation in F508del/F508del CF bronchial epithelial cells (27° C.). It counts as cell-based. The method in brief:
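Well-differentiated primary CF hBE cells (>30 days air/liquid interface) in Ussing chambers, HEPES saline both sides, voltage clamped to zero. Amiloride 30 uM, forskolin 10 uM, four rising compound concentrations, then CFTRinh-172 20 uM added at 20-25 min intervals. Short-circuit current scaled to DMSO (0%) and a positive control potentiator maximum (100%).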

In assay [2] the target is T2, recombinant F508del V470 CFTR in Fischer rat thyroid (FRT) cells (Homo sapiens, UniProt P13569, DEL508-508).
T2 construct: expressed in transfected cells
T2 sequence (P13569 with tags, fused parts or gaps DEL508-508): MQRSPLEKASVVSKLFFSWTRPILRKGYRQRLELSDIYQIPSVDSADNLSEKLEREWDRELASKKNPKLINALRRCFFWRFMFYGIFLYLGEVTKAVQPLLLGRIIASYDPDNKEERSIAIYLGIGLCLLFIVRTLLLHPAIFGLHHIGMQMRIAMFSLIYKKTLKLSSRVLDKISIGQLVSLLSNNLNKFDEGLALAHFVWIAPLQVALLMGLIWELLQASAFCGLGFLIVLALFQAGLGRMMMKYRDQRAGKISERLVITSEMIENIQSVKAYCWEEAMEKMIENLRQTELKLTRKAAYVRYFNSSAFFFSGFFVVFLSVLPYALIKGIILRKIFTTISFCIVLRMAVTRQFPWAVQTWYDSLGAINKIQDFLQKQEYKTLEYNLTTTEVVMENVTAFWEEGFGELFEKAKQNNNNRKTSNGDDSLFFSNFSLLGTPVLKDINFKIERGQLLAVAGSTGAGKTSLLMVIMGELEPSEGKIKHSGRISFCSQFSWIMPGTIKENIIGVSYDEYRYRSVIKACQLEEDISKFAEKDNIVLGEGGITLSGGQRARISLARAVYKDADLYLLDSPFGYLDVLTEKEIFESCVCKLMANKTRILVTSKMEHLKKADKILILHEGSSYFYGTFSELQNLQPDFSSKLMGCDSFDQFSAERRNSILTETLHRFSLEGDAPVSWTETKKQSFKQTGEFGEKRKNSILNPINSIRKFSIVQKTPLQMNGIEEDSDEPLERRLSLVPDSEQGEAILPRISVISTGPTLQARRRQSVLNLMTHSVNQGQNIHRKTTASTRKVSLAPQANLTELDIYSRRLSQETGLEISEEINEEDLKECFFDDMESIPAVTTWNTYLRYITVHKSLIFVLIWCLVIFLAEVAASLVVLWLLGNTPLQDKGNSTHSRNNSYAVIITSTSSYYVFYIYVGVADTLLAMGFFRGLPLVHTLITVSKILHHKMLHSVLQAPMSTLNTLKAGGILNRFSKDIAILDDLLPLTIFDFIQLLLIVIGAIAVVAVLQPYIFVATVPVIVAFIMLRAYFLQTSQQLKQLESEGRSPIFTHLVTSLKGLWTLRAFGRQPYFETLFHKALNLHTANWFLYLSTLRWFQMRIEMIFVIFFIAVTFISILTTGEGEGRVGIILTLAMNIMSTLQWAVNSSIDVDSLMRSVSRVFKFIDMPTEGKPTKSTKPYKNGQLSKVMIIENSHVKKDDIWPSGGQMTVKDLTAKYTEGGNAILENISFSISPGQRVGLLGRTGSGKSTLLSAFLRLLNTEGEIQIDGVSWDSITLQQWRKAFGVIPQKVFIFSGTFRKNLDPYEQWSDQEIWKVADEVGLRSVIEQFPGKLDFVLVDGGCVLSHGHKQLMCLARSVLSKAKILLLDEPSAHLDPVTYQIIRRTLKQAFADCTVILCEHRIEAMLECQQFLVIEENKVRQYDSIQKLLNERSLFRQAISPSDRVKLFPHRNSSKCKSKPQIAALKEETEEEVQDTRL
The assay is described as follows: FRT ion flux assay of F508del CFTR potentiation. Format: cell-based. The conditions noted are these: FRT cells expressing F508del V470 CFTR, forskolin 20 uM, 27° C. pre-incubation. The procedure, abridged:
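FRT cells co-expressing F508del V470 CFTR and halide-sensitive YFP, temperature-corrected at 27° C for 16-24 h, then treated 30 min with compound plus 20 uM forskolin. Iodide addition quenches YFP, read after ~21 s; ratio scaled to DMSO (0%) and positive control potentiator (100%).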

T1 sequence (P13569 with tags, fused parts or gaps DEL508-508): as above

For the compound `CC(c1cn(-c2ccccc2F)nn1)n1cc(-c2ccc(Cl)c(F)c2)c2c(N)ncnc21` (stereo not shown) [Example 98, 5-(4-Chloro-3-fluorophenyl)-7-{1-[1-(2-fluorophenyl)-1H-1,2,3-triazol-4-yl]ethyl}-7H-pyrrolo[2,3-d]pyrimidin-4-amine], the results for the EC50 in assay [1] and in assay [2] were 28 nM and 40.9 nM, respectively.
For `CC(c1cn(-c2ccccc2F)nn1)n1cc(-c2cc(F)cc(Cl)c2)c2c(N)ncnc21` (stereo not shown) [Example 99, 5-(3-Chloro-5-fluorophenyl)-7-{1-[1-(2-fluorophenyl)-1H-1,2,3-triazol-4-yl]ethyl}-7H-pyrrolo[2,3-d]pyrimidin-4-amine], in that order: 35.9 nM and 50 nM.
Taken in the same sequence, the figures for `CC(c1cc(-c2ccccc2F)no1)n1cc(-c2ccc(N(C)C)cc2)c2c(N)ncnc21` (stereo not shown) [Example 105, 5-[4-(Dimethylamino)phenyl]-7-{1-[3-(2-fluorophenyl)-1,2-oxazol-5-yl]ethyl}-7H-pyrrolo[2,3-d]pyrimidin-4-amine] were 75 nM and 374 nM.
On to `CC(c1cc(-c2ccccc2F)no1)n1cc(-c2ccc(-c3ncns3)cc2)c2c(N)ncnc21` (stereo not shown) [Example 107, 7-{1-[3-(2-Fluorophenyl)-1,2-oxazol-5-yl]ethyl}-5-[4-(1,2,4-thiadiazol-5-yl)phenyl]-7H-pyrrolo[2,3-d]pyrimidin-4-amine], for which the EC50 was 122 nM in assay [1] and 172 nM in assay [2].
Take `COc1cnc(-c2cn(C(C)c3cc(-c4ccccc4F)no3)c3ncnc(N)c23)cn1` (stereo not shown) [Example 191, 7-{1-[3-(2-Fluorophenyl)-1,2-oxazol-5-yl]ethyl}-5-(5-methoxypyrazin-2-yl)-7H-pyrrolo[2,3-d]pyrimidin-4-amine]: the EC50 worked out at 103 nM in assay [1] and 918 nM in assay [2].
Taken in the same sequence, the figures for `N#Cc1ccc(-c2cn(Cc3cnc(-c4ccccc4F)[nH]3)c3ncnc(N)c23)cc1F` [Example 192, 4-(4-Amino-7-{[2-(2-fluorophenyl)-1H-imidazol-5-yl]methyl}-7H-pyrrolo[2,3-d]pyrimidin-5-yl)-2-fluorobenzonitrile] were 118 nM and 83 nM.
For `COc1ncccc1-c1cn(Cc2cnc(-c3ccccc3F)[nH]2)c2ncnc(N)c12` [Example 193, 7-{[2-(2-Fluorophenyl)-1H-imidazol-5-yl]methyl}-5-(2-methoxypyridin-3-yl)-7H-pyrrolo[2,3-d]pyrimidin-4-amine], in that order: 117 nM and 43.8 nM.
Turning to `COc1nc(C)ccc1-c1cn(Cc2cn(-c3ccccc3F)nn2)c2ncnc(N)c12` [Example 194, 7-{[1-(2-Fluorophenyl)-1H-1,2,3-triazol-4-yl]methyl}-5-(2-methoxy-6-methylpyridin-3-yl)-7H-pyrrolo[2,3-d]pyrimidin-4-amine], the figures for the EC50 in assay [1] and in assay [2] were 12.2 nM and 28.6 nM, respectively.
In the case of `COc1ncc(F)cc1-c1cn(Cc2cn(-c3ccccc3F)nn2)c2ncnc(N)c12` [Example 195, 5-(5-Fluoro-2-methoxypyridin-3-yl)-7-{[1-(2-fluorophenyl)-1H-1,2,3-triazol-4-yl]methyl}-7H-pyrrolo[2,3-d]pyrimidin-4-amine], the EC50 is 25.3 nM in assay [1] and 63.6 nM in assay [2].
With `Nc1ncnc2c1c(-c1cccnc1OC(F)F)cn2Cc1cn(-c2ccccc2F)nn1` [Example 196, 5-[2-(Difluoromethoxy)pyridin-3-yl]-7-{[1-(2-fluorophenyl)-1H-1,2,3-triazol-4-yl]methyl}-7H-pyrrolo[2,3-d]pyrimidin-4-amine], the values for the EC50 in assay [1] and in assay [2] were 49 nM and 15.6 nM, respectively.
Take `Nc1ncnc2c1c(-c1cnco1)cn2Cc1cn(-c2ccccc2F)nn1` [Example 197, 7-{[1-(2-Fluorophenyl)-1H-1,2,3-triazol-4-yl]methyl}-5-(1,3-oxazol-5-yl)-7H-pyrrolo[2,3-d]pyrimidin-4-amine]: the EC50 in assay [1] was determined as 811 nM; in assay [2] it was 254 nM.
For `Nc1ncnc2c1c(C1CCCO1)cn2Cc1cn(-c2ccccc2F)nn1` (stereo not shown) [Example 198, 7-{[1-(2-Fluorophenyl)-1H-1,2,3-triazol-4-yl]methyl}-5-(tetrahydrofuran-2-yl)-7H-pyrrolo[2,3-d]pyrimidin-4-amine], in that order: 2120 nM and greater than 25000 nM.
Consider `COc1ncncc1-c1cn(Cc2cn(-c3ccccc3F)nn2)c2ncnc(N)c12` [Example 200, 7-{[1-(2-Fluorophenyl)-1H-1,2,3-triazol-4-yl]methyl}-5-(4-methoxypyrimidin-5-yl)-7H-pyrrolo[2,3-d]pyrimidin-4-amine], for which the EC50 in assay [1] was 478 nM; in assay [2], 100 nM.
Take `COc1ncccc1-c1cn(Cc2cn(-c3ccccc3F)nn2)c2nc(C)nc(N)c12` [Example 202, 7-{[1-(2-Fluorophenyl)-1H-1,2,3-triazol-4-yl]methyl}-5-(2-methoxypyridin-3-yl)-2-methyl-7H-pyrrolo[2,3-d]pyrimidin-4-amine]: the EC50 came out at 798 nM in assay [1] and 922 nM in assay [2].
Taken in the same sequence, the figures for `COc1ncncc1-c1cn(Cc2cn(-c3ccccc3F)nn2)c2nc(C)nc(N)c12` [Example 203, 7-{[1-(2-fluorophenyl)-1H-1,2,3-triazol-4-yl]methyl}-5-(4-methoxypyrimidin-5-yl)-2-methyl-7H-pyrrolo[2,3-d]pyrimidin-4-amine] were 2530 nM and 1610 nM.
Take `COc1nc(C(F)(F)F)ccc1-c1cn(Cc2cn(-c3ccccc3F)nn2)c2ncnc(N)c12` [Example 206, 7-{[1-(2-fluorophenyl)-1H-1,2,3-triazol-4-yl]methyl}-5-[2-methoxy-6-(trifluoromethyl)pyridin-3-yl]-7H-pyrrolo[2,3-d]pyrimidin-4-amine]: the EC50 in assay [1] stood at 10.8 nM; in assay [2], 22.9 nM.
Taken in the same sequence, the figures for `COc1cccnc1-c1cn(Cc2cn(-c3ccccc3F)nn2)c2ncnc(N)c12` [Example 207, 7-{[1-(2-fluorophenyl)-1H-1,2,3-triazol-4-yl]methyl}-5-(3-methoxypyridin-2-yl)-7H-pyrrolo[2,3-d]pyrimidin-4-amine] were 238 nM and 226 nM.
For `Cc1cccc(-n2cc(C(C)n3cc(-c4ccc(Cl)cc4)c4c(N)ncnc43)nn2)c1` (stereo not shown) [Example 208, 5-(4-Chlorophenyl)-7-{1-[1-(3-methylphenyl)-1H-1,2,3-triazol-4-yl]ethyl}-7H-pyrrolo[2,3-d]pyrimidin-4-amine], in that order: 55 nM and 404 nM.
On to `Cc1nc(N)c2c(-c3ccc(Cl)cc3)cn(C(C)c3cn(-c4ccccc4F)nn3)c2n1` (stereo not shown) [Example 209, 5-(4-Chlorophenyl)-7-{1-[1-(2-fluorophenyl)-1H-1,2,3-triazol-4-yl]ethyl}-2-methyl-7H-pyrrolo[2,3-d]pyrimidin-4-amine], for which the EC50 in assay [1] was 295 nM; in assay [2], 343 nM.
Take `COc1ncccc1-c1cn(Cc2cn(-c3ccccc3F)nn2)c2ncnc(N)c12` [Example 210, 7-{[1-(2-Fluorophenyl)-1H-1,2,3-triazol-4-yl]methyl}-5-(2-methoxy-pyridin-3-yl)-7H-pyrrolo[2,3-d]pyrimidin-4-amine]: the EC50 in assay [1] came out at 158 nM; in assay [2] it was 123 nM.
For `CCC(c1cn(-c2ccccc2F)nn1)n1cc(-c2ccc(Cl)cc2)c2c(N)ncnc21` (stereo not shown) [Example 211, 5-(4-Chlorophenyl)-7-{1-[1-(2-fluorophenyl)-1H-1,2,3-triazol-4-yl]propyl}-7H-pyrrolo[2,3-d]pyrimidin-4-amine], in that order: 25.9 nM and 109 nM.
For `CC(c1cn(-c2ccccc2F)nn1)n1cc(-c2ccc(OC3CC3)cc2)c2c(N)ncnc21` (stereo not shown) [Example 212, 5-[4-(Cyclopropyloxy)phenyl]-7-{1-[1-(2-fluorophenyl)-1H-1,2,3-triazol-4-yl]ethyl}-7H-pyrrolo[2,3-d]pyrimidin-4-amine], in that order: 12.2 nM and 68.2 nM.
Taken in the same sequence, the figures for `CC(c1cn(-c2ccccc2F)nn1)n1cc(-c2ccc(OC3CC3)nc2)c2c(N)ncnc21` (stereo not shown) [Example 213, 5-[6-(Cyclopropyloxy)pyridin-3-yl]-7-{1-[1-(2-fluorophenyl)-1H-1,2,3-triazol-4-yl]ethyl}-7H-pyrrolo[2,3-d]pyrimidin-4-amine] were 23.1 nM and 58.6 nM.
`CC(c1cn(-c2ncccc2F)nn1)n1cc(-c2ccc(OC3CC3)cc2)c2c(N)ncnc21` (stereo not shown) [Example 214, 5-[4-(Cyclopropoxy)phenyl]-7-{1-[1-(3-fluoropyridin-2-yl)-1H-1,2,3-triazol-4-yl]ethyl}-7H-pyrrolo[2,3-d]pyrimidin-4-amine]: the EC50 was 39.6 nM in assay [1] and 90.6 nM in assay [2].
Taken in the same sequence, the figures for `COc1ncccc1-c1cn(C(C)c2cn(-c3ccccc3F)nn2)c2ncnc(N)c12` (stereo not shown) [Example 215, 7-{1-[1-(2-Fluorophenyl)-1H-1,2,3-triazol-4-yl]ethyl}-5-(2-methoxypyridin-3-yl)-7H-pyrrolo [2,3-d]pyrimidin-4-amine] were 184 nM and 79.3 nM.
Take `CC(c1cn(-c2ccccc2F)nn1)n1cc(-c2cnc(C(F)(F)F)nc2)c2c(N)ncnc21` (stereo not shown) [Example 216, 7-{1-[1-(2-Fluorophenyl)-1H-1,2,3-triazol-4-yl]ethyl}-5-[2-(trifluoromethyl)pyrimidin-5-yl]-7H-pyrrolo[2,3-d]pyrimidin-4-amine]: the concentration giving a half-maximal response (EC50) in assay [1] is 58.8 nM; in assay [2], 25.2 nM.
